Experimental data published in the NIST ThermoML archive (doi:10.1021/je700339f).
Numbers after ± are expanded uncertainties.

Details: Liquid

ClCCCl [1,2-dichloroethane]
mass density [kg/m3]
Details | 288.15 K | 298.15 K | 308.15 K | 318.15 K
100 kPa | 1259.9 ± 0.6 | 1245.5 ± 0.6 | 1231 ± 0.6 | 1216.4 ± 0.5
500 kPa | 1260.3 ± 0.6 | 1246.1 ± 0.6 | 1231.4 ± 0.6 | 1216.7 ± 0.6
1000 kPa | 1260.8 ± 0.6 | 1246.4 ± 0.6 | 1232 ± 0.6 | 1217.4 ± 0.6
1500 kPa | 1261.2 ± 0.7 | 1246.9 ± 0.6 | 1232.5 ± 0.6 | 1218 ± 0.6
2000 kPa | 1261.6 ± 0.7 | 1247.4 ± 0.7 | 1233 ± 0.6 | 1218.5 ± 0.6
2500 kPa | 1262.2 ± 0.7 | 1247.8 ± 0.7 | 1233.5 ± 0.7 | 1219.1 ± 0.6
3100 kPa | 1262.7 ± 0.7 | 1248.5 ± 0.7 | 1234.2 ± 0.7 | 1219.8 ± 0.6
3600 kPa | 1263.2 ± 0.8 | 1248.9 ± 0.7 | 1234.7 ± 0.7 | 1220.3 ± 0.7
4100 kPa | 1263.6 ± 0.8 | 1249.4 ± 0.7 | 1235.2 ± 0.7 | 1220.9 ± 0.7
4600 kPa | 1264 ± 0.8 | 1249.9 ± 0.8 | 1235.7 ± 0.7 | 1221.4 ± 0.7
5100 kPa | 1264.5 ± 0.8 | 1250.4 ± 0.8 | 1236.2 ± 0.8 | 1222 ± 0.7
5600 kPa | 1264.9 ± 0.8 | 1250.9 ± 0.8 | 1236.9 ± 0.8 | 1222.6 ± 0.7
6100 kPa | 1265.4 ± 0.9 | 1251.4 ± 0.8 | 1237.3 ± 0.8 | 1223.1 ± 0.8
6600 kPa | 1265.8 ± 0.9 | 1251.9 ± 0.9 | 1237.9 ± 0.8 | 1223.6 ± 0.8
7100 kPa | 1266.2 ± 0.9 | 1252.3 ± 0.9 | 1238.4 ± 0.8 | 1224.1 ± 0.8
7600 kPa | 1266.7 ± 0.9 | 1252.9 ± 0.9 | 1238.6 ± 0.9 | 1224.7 ± 0.8
8100 kPa | 1267.2 ± 1 | 1253.2 ± 0.9 | 1239.3 ± 0.9 | 1225.2 ± 0.8
8600 kPa | 1267.6 ± 1 | 1253.8 ± 0.9 | 1239.8 ± 0.9 | 1225.8 ± 0.9
9200 kPa | 1268.2 ± 1 | 1254.4 ± 1 | 1240.4 ± 0.9 | 1226.3 ± 0.9
9600 kPa | 1268.6 ± 1 | 1254.9 ± 1 | 1240.9 ± 0.9 | 1226.9 ± 0.9
10000 kPa | – | 1255.1 ± 1 | – | –
10100 kPa | 1269 ± 1 | – | 1241.3 ± 1 | 1227.5 ± 0.9
10600 kPa | 1269.4 ± 1.1 | 1255.9 ± 1 | 1241.8 ± 1 | 1227.9 ± 0.9
11100 kPa | 1269.8 ± 1.1 | 1256.4 ± 1 | 1242.3 ± 1 | 1228.4 ± 0.9
11600 kPa | 1270.3 ± 1.1 | 1256.7 ± 1.1 | 1242.8 ± 1 | 1229 ± 1
12100 kPa | 1270.7 ± 1.1 | 1257.3 ± 1.1 | 1243.4 ± 1 | 1229.5 ± 1
12500 kPa | – | – | – | 1230 ± 1
12600 kPa | 1271 ± 1.2 | 1257.6 ± 1.1 | 1243.8 ± 1.1 | –
13100 kPa | 1271.5 ± 1.2 | 1258 ± 1.1 | 1244.2 ± 1.1 | 1230.6 ± 1
13600 kPa | 1271.9 ± 1.2 | 1258.5 ± 1.1 | 1244.7 ± 1.1 | 1231 ± 1
14100 kPa | 1272.4 ± 1.2 | – | – | –
14200 kPa | – | 1259 ± 1.2 | 1245.3 ± 1.1 | 1231.6 ± 1.1
14700 kPa | 1272.9 ± 1.2 | 1259.4 ± 1.2 | 1245.8 ± 1.1 | 1232.1 ± 1.1
15200 kPa | 1273.3 ± 1.3 | 1260 ± 1.2 | 1246.4 ± 1.2 | 1232.7 ± 1.1
15600 kPa | – | – | – | 1233.1 ± 1.1
15700 kPa | 1273.7 ± 1.3 | 1260.5 ± 1.2 | 1246.8 ± 1.2 | –
16200 kPa | – | 1260.8 ± 1.3 | 1247.2 ± 1.2 | –
16300 kPa | 1274.2 ± 1.3 | – | – | 1233.8 ± 1.2
16700 kPa | – | 1261.4 ± 1.3 | 1247.7 ± 1.2 | –
16800 kPa | 1274.6 ± 1.3 | – | – | 1234.2 ± 1.2
17200 kPa | 1275 ± 1.4 | – | 1248.2 ± 1.2 | –
17300 kPa | – | 1261.9 ± 1.3 | – | 1234.8 ± 1.2
17700 kPa | 1275.4 ± 1.4 | – | – | –
17800 kPa | – | 1262.4 ± 1.3 | 1248.7 ± 1.3 | 1235.2 ± 1.2
18200 kPa | 1275.8 ± 1.4 | – | – | 1235.5 ± 1.2
18300 kPa | – | 1262.8 ± 1.4 | 1249.2 ± 1.3 | –
18600 kPa | 1276.2 ± 1.4 | – | – | –
18800 kPa | – | 1263.3 ± 1.4 | 1249.6 ± 1.3 | –
18900 kPa | – | – | – | 1236.2 ± 1.3
19000 kPa | 1276.5 ± 1.4 | – | – | –
19200 kPa | – | 1263.7 ± 1.4 | 1250.1 ± 1.3 | 1236.5 ± 1.3
19400 kPa | 1276.9 ± 1.5 | – | – | –
19700 kPa | – | 1264.1 ± 1.4 | 1250.6 ± 1.4 | 1237.1 ± 1.3
20000 kPa | 1277.3 ± 1.5 | – | – | –
20200 kPa | – | 1264.5 ± 1.4 | 1251 ± 1.4 | 1237.5 ± 1.3

ClCCCCCl [1,4-dichlorobutane]
mass density [kg/m3]
Details | 288.15 K | 298.15 K | 308.15 K | 318.15 K
100 kPa | 1143.7 ± 3.5 | 1133.7 ± 3.4 | 1122.3 ± 3.3 | 1112 ± 3.2
500 kPa | 1144.1 ± 3.5 | 1134 ± 3.4 | 1122.7 ± 3.3 | 1112.4 ± 3.2
1000 kPa | 1144.5 ± 3.5 | 1134.4 ± 3.4 | 1123.1 ± 3.3 | 1112.8 ± 3.2
1500 kPa | 1144.8 ± 3.6 | 1134.8 ± 3.5 | 1123.5 ± 3.4 | 1113.2 ± 3.3
2000 kPa | 1145.2 ± 3.6 | 1135.2 ± 3.5 | 1123.9 ± 3.4 | 1113.7 ± 3.3
2500 kPa | 1145.5 ± 3.6 | 1135.6 ± 3.5 | 1124.3 ± 3.4 | 1114.1 ± 3.3
3000 kPa | 1145.9 ± 3.7 | – | – | –
3100 kPa | – | 1136.1 ± 3.6 | 1124.8 ± 3.5 | 1114.7 ± 3.4
3500 kPa | – | – | – | 1115 ± 3.4
3600 kPa | 1146.4 ± 3.7 | 1136.4 ± 3.6 | 1125.2 ± 3.5 | –
4100 kPa | 1146.7 ± 3.8 | 1136.8 ± 3.7 | 1125.6 ± 3.5 | 1115.5 ± 3.4
4600 kPa | 1147 ± 3.8 | 1137.2 ± 3.7 | 1126 ± 3.6 | 1115.9 ± 3.5
5100 kPa | 1147.4 ± 3.8 | 1137.6 ± 3.7 | 1126.4 ± 3.6 | 1116.3 ± 3.5
5600 kPa | 1147.7 ± 3.9 | 1137.9 ± 3.8 | 1126.9 ± 3.6 | 1116.8 ± 3.5
6100 kPa | 1148.1 ± 3.9 | 1138.4 ± 3.8 | 1127.2 ± 3.7 | 1117.3 ± 3.6
6600 kPa | 1148.5 ± 4 | 1138.7 ± 3.8 | 1127.5 ± 3.7 | 1117.7 ± 3.6
7100 kPa | 1148.9 ± 4 | 1139.1 ± 3.9 | 1128 ± 3.7 | 1118.1 ± 3.6
7600 kPa | 1149.2 ± 4 | 1139.4 ± 3.9 | 1128.4 ± 3.8 | 1118.4 ± 3.7
8100 kPa | 1149.5 ± 4.1 | 1139.8 ± 4 | 1128.8 ± 3.8 | 1118.9 ± 3.7
8600 kPa | 1149.9 ± 4.1 | 1140.2 ± 4 | 1129.2 ± 3.9 | 1119.3 ± 3.7
9200 kPa | 1150.3 ± 4.2 | 1140.6 ± 4 | 1129.6 ± 3.9 | 1119.8 ± 3.8
9600 kPa | 1150.7 ± 4.2 | 1141 ± 4.1 | 1130 ± 3.9 | 1120.2 ± 3.8
10100 kPa | 1151 ± 4.2 | 1141.4 ± 4.1 | 1130.4 ± 4 | 1120.6 ± 3.8
10600 kPa | 1151.3 ± 4.3 | – | 1130.9 ± 4 | 1121 ± 3.9
10700 kPa | – | 1141.8 ± 4.2 | – | –
11100 kPa | 1151.7 ± 4.3 | 1142.1 ± 4.2 | 1131.2 ± 4 | 1121.4 ± 3.9
11600 kPa | 1152 ± 4.4 | 1142.4 ± 4.2 | 1131.5 ± 4.1 | 1121.8 ± 3.9
12100 kPa | 1152.4 ± 4.4 | 1142.8 ± 4.3 | 1131.9 ± 4.1 | 1122.1 ± 4
12600 kPa | 1152.7 ± 4.4 | 1143.2 ± 4.3 | 1132.4 ± 4.1 | 1122.6 ± 4
13000 kPa | – | – | – | 1123 ± 4
13100 kPa | 1153.1 ± 4.5 | 1143.6 ± 4.3 | 1132.6 ± 4.2 | –
13500 kPa | 1153.3 ± 4.5 | – | – | –
13600 kPa | – | 1143.9 ± 4.4 | 1133.1 ± 4.2 | 1123.3 ± 4.1
14100 kPa | – | 1144.2 ± 4.4 | 1133.5 ± 4.2 | –
14200 kPa | 1153.8 ± 4.6 | – | – | 1123.9 ± 4.1
14700 kPa | 1154.1 ± 4.6 | 1144.6 ± 4.5 | 1133.9 ± 4.3 | 1124.4 ± 4.1
15100 kPa | – | – | 1134.2 ± 4.3 | –
15200 kPa | 1154.4 ± 4.6 | 1145 ± 4.5 | – | 1124.7 ± 4.2
15700 kPa | 1154.8 ± 4.7 | 1145.4 ± 4.5 | 1134.6 ± 4.4 | 1125.1 ± 4.2
16200 kPa | – | 1145.8 ± 4.6 | 1135 ± 4.4 | –
16300 kPa | 1155.2 ± 4.7 | – | – | 1125.4 ± 4.3
16700 kPa | – | 1146.1 ± 4.6 | 1135.3 ± 4.4 | –
16800 kPa | 1155.6 ± 4.8 | – | – | 1126 ± 4.3
17200 kPa | – | 1146.5 ± 4.7 | 1135.7 ± 4.5 | –
17300 kPa | 1155.9 ± 4.8 | – | – | 1126.3 ± 4.3
17800 kPa | 1156.2 ± 4.9 | 1146.9 ± 4.7 | 1136.1 ± 4.5 | 1126.5 ± 4.4
18300 kPa | 1156.5 ± 4.9 | 1147.2 ± 4.7 | 1136.5 ± 4.6 | 1127 ± 4.4
18800 kPa | 1156.8 ± 4.9 | 1147.6 ± 4.8 | 1136.8 ± 4.6 | 1127.4 ± 4.4
19100 kPa | 1157.1 ± 5 | – | – | –
19200 kPa | – | 1147.9 ± 4.8 | 1137.2 ± 4.6 | 1127.7 ± 4.5
19700 kPa | 1157.4 ± 5 | 1148.2 ± 4.9 | 1137.6 ± 4.7 | 1128 ± 4.5
20200 kPa | 1157.8 ± 5.1 | 1148.7 ± 4.9 | 1138 ± 4.7 | 1128.4 ± 4.5
